Results taken from patent US8859250B2, “Crystal structure of glutaminyl cyclase” (Probiodrug AG, priority 2010, dated 2014).

Key:
murine QC (mQC) = target: T1, murine QC (mQC) (Mus musculus, UniProt Q9CYK2); experiment: Ki-values of selected inhibitors for murine QC; assay type: biochemical; conditions: murine glutaminyl cyclase
T1 construct: made in house; host or cells: Pichia pastoris (vector pPICZalphaB, secreted)

Solubility in water = assay type: physicochemical

T1 sequence (Q9CYK2 36-362): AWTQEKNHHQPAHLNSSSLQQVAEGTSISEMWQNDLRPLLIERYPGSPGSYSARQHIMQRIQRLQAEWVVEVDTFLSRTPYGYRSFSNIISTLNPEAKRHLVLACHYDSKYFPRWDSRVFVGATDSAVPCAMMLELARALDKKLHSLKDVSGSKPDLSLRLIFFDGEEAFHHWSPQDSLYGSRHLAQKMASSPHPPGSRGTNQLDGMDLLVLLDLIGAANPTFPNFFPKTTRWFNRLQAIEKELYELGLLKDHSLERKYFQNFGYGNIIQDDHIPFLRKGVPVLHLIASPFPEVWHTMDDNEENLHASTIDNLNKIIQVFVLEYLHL

Ki (murine QC (mQC))	solubility in water (Solubility in water)	Structure (SMILES)
51.3 nM	–	Cc1cc(C)c(N/C(=N/C#N)NCCCn2cncc2C)c(C)c1 [Inhibitor C]
173 nM	soluble in water	COc1ccc(NC(=S)NCCCn2ccnc2)cc1OC [Inhibitor A, 1-(3-(1H-Imidazol-1-yl)propyl)-3-(3,4-dimethoxyphenyl)thiourea]
